Data published in patent US20230085307A1, “PYRIDAZINONE COMPOUND AND HERBICIDE” (NISSAN CHEMICAL CORPORATION, priority 2019, published 2023).

Tests used:
lambsquarters [1] = experiment: Test Example 4: herbicidal effect by soil treatment (Table 19, symbol O); type: in vivo, lambsquarters (Chenopodium album); details: amount of applied herbicide 320 g/ha
Summary of the method: (§1)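 Seeds were sown in sterilized diluvial soil and covered with about 1.5 cm of soil. An emulsion formulation diluted with water to a predetermined herbicide amount was sprayed evenly onto the soil surface. Plants grew in a greenhouse at 25° C. to 30° C., and the effect was scored three weeks after application using criteria from an earlier test.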

windgrass [2] = experiment: Test Example 5: herbicidal effect by foliage application, plastic box (Table 20, symbol L); type: in vivo, windgrass (Apera spica-venti); details: foliage application, 320 g/ha, evaluated three weeks after application
Summary of the method: (§2)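 Plants sown in sterilized diluvial soil and grown 14 days in a greenhouse at 25° C to 30° C, then sprayed on the foliage with the compound's emulsion diluted in water to a predetermined herbicide amount. Injury to weeds and crops scored three weeks after application on a visual rating scale.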

barnyard grass [3] = experiment: Test Example 3: herbicidal effect by foliage application, Wagner pot (Table 18, symbol H); type: in vivo, barnyard grass (Echinochloa crus-galli); details: amount of applied herbicide 320 g/ha
Summary of the method: (§3)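 Plants were sown in alluvial soil held under 0.1–0.5 cm standing water and grown 14 days in a greenhouse at 25–30 °C. An emulsifiable formulation, water-diluted to the set dose, was then sprayed onto the foliage, and effects were scored three weeks later using previously defined criteria.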

southern crabgrass [4] = experiment: Test Example 4: herbicidal effect by soil treatment (Table 19, symbol F); type: in vivo, southern crabgrass (Digitaria ciliaris); details: amount of applied herbicide 320 g/ha
Summary of the method: as §1

green foxtail [5] = experiment: Test Example 4: herbicidal effect by soil treatment (Table 19, symbol G); type: in vivo, green foxtail (Setaria viridis); details: amount of applied herbicide 320 g/ha
Summary of the method: as §1

blackgrass [6] = experiment: Test Example 4: herbicidal effect by soil treatment (Table 19, symbol J); type: in vivo, blackgrass (Alopecurus myosuroides); details: amount of applied herbicide 320 g/ha
Summary of the method: as §1

wild oat [7] = experiment: Test Example 4: herbicidal effect by soil treatment (Table 19, symbol I); type: in vivo, wild oat (Avena fatua); details: amount of applied herbicide 320 g/ha
Summary of the method: as §1

redroot pigweed [8] = experiment: Test Example 4: herbicidal effect by soil treatment (Table 19, symbol N); type: in vivo, redroot pigweed (Amaranthus retroflexus); details: amount of applied herbicide 320 g/ha
Summary of the method: as §1

blackgrass [9] = experiment: Test Example 5: herbicidal effect by foliage application, plastic box (Table 20, symbol J); type: in vivo, blackgrass (Alopecurus myosuroides); details: foliage application, 320 g/ha, evaluated three weeks after application
Summary of the method: as §2

chickweed [10] = experiment: Test Example 5: herbicidal effect by foliage application, plastic box (Table 20, symbol P); type: in vivo, common chickweed (Stellaria media); details: foliage application, 320 g/ha, evaluated three weeks after application
Summary of the method: as §2

persian speedwell [11] = experiment: Test Example 5: herbicidal effect by foliage application, plastic box (Table 20, symbol R); type: in vivo, Persian speedwell (Veronica persica); details: foliage application, 320 g/ha, evaluated three weeks after application
Summary of the method: as §2

velvetleaf [12] = experiment: Test Example 4: herbicidal effect by soil treatment (Table 19, symbol M); type: in vivo, velvetleaf (Abutilon theophrasti); details: amount of applied herbicide 320 g/ha
Summary of the method: as §1

chickweed [13] = experiment: Test Example 4: herbicidal effect by soil treatment (Table 19, symbol P); type: in vivo, common chickweed (Stellaria media); details: amount of applied herbicide 320 g/ha
Summary of the method: as §1

barnyard grass [14] = experiment: Test Example 4: herbicidal effect by soil treatment (Table 19, symbol H); type: in vivo, barnyard grass (Echinochloa crus-galli); details: amount of applied herbicide 320 g/ha
Summary of the method: as §1

velvetleaf [15] = experiment: Test Example 5: herbicidal effect by foliage application, plastic box (Table 20, symbol M); type: in vivo, velvetleaf (Abutilon theophrasti); details: foliage application, 320 g/ha, evaluated three weeks after application
Summary of the method: as §2

windgrass [16] = experiment: Test Example 4: herbicidal effect by soil treatment (Table 19, symbol L); type: in vivo, windgrass (Apera spica-venti); details: amount of applied herbicide 320 g/ha
Summary of the method: as §1

lambsquarters [17] = experiment: Test Example 5: herbicidal effect by foliage application, plastic box (Table 20, symbol O); type: in vivo, lambsquarters (Chenopodium album); details: foliage application, 320 g/ha, evaluated three weeks after application
Summary of the method: as §2

southern crabgrass [18] = experiment: Test Example 5: herbicidal effect by foliage application, plastic box (Table 20, symbol F); type: in vivo, southern crabgrass (Digitaria ciliaris); details: foliage application, 320 g/ha, evaluated three weeks after application
Summary of the method: as §2

rice flat sedge = experiment: Test Example 3: herbicidal effect by foliage application, Wagner pot (Table 18, symbol E); type: in vivo, rice flat sedge (Cyperus iria); details: amount of applied herbicide 320 g/ha
Summary of the method: as §3

barnyard grass [19] = experiment: Test Example 5: herbicidal effect by foliage application, plastic box (Table 20, symbol H); type: in vivo, barnyard grass (Echinochloa crus-galli); details: foliage application, 320 g/ha, evaluated three weeks after application
Summary of the method: as §2

Chinese sprangletop = experiment: Test Example 3: herbicidal effect by foliage application, Wagner pot (Table 18, symbol D); type: in vivo, chinese sprangletop (Leptochloa chinensis); details: amount of applied herbicide 320 g/ha
Summary of the method: as §3

green foxtail [20] = experiment: Test Example 5: herbicidal effect by foliage application, plastic box (Table 20, symbol G); type: in vivo, green foxtail (Setaria viridis); details: foliage application, 320 g/ha, evaluated three weeks after application
Summary of the method: as §2

Italian ryegrass [21] = experiment: Test Example 5: herbicidal effect by foliage application, plastic box (Table 20, symbol K); type: in vivo, Italian ryegrass (Lolium multiflorum); details: foliage application, 320 g/ha, evaluated three weeks after application
Summary of the method: as §2

false cleavers [22] = experiment: Test Example 5: herbicidal effect by foliage application, plastic box (Table 20, symbol Q); type: in vivo, false cleavers (Galium spurium); details: foliage application, 320 g/ha, evaluated three weeks after application
Summary of the method: as §2

Italian ryegrass [23] = experiment: Test Example 4: herbicidal effect by soil treatment (Table 19, symbol K); type: in vivo, Italian ryegrass (Lolium multiflorum); details: amount of applied herbicide 320 g/ha
Summary of the method: as §1

false cleavers [24] = experiment: Test Example 4: herbicidal effect by soil treatment (Table 19, symbol Q); type: in vivo, false cleavers (Galium spurium); details: amount of applied herbicide 320 g/ha
Summary of the method: as §1

redroot pigweed [25] = experiment: Test Example 5: herbicidal effect by foliage application, plastic box (Table 20, symbol N); type: in vivo, redroot pigweed (Amaranthus retroflexus); details: foliage application, 320 g/ha, evaluated three weeks after application
Summary of the method: as §2

wild oat [26] = experiment: Test Example 5: herbicidal effect by foliage application, plastic box (Table 20, symbol I); type: in vivo, wild oat (Avena fatua); details: foliage application, 320 g/ha, evaluated three weeks after application
Summary of the method: as §2

persian speedwell [27] = experiment: Test Example 4: herbicidal effect by soil treatment (Table 19, symbol R); type: in vivo, Persian speedwell (Veronica persica); details: amount of applied herbicide 320 g/ha
Summary of the method: as §1

SMILES | O: lambsquarters, herbicidal effect rating (lambsquarters [1]) | herbicidal effect on H: barnyard grass (barnyard grass [3]) | F: southern crabgrass, herbicidal effect rating (southern crabgrass [4]) | G: green foxtail, herbicidal effect rating (green foxtail [5]) | J: blackgrass, herbicidal effect rating (blackgrass [6]) | I: wild oat, herbicidal effect rating (wild oat [7]) | N: redroot pigweed, herbicidal effect rating (redroot pigweed [8]) | M: velvetleaf, herbicidal effect rating (velvetleaf [12]) | P: chickweed, herbicidal effect rating (chickweed [13]) | H: barnyard grass, herbicidal effect rating (barnyard grass [14]) | L: windgrass, herbicidal effect rating (windgrass [16]) | herbicidal effect on E: rice flat sedge (rice flat sedge) | herbicidal effect on D: Chinese sprangletop (Chinese sprangletop) | K: Italian ryegrass, herbicidal effect rating (Italian ryegrass [23]) | Q: false cleavers, herbicidal effect rating (false cleavers [24]) | R: persian speedwell, herbicidal effect rating (persian speedwell [27]) | also measured
CCCC(=O)Oc1c(C)nn(C)c(=O)c1-c1c(-c2ccc(OC)c(OC)c2)sc2ccc(Cl)cc12 [2-124] | 3 (Herbicidal rate of 40% or more and less than 70%) | 3 (Herbicidal rate of 40% or more and less than 70%) | 1 (Herbicidal rate of 5% or more and less than 20%) | 0 (Herbicidal rate of 5% or less (almost no effect)) | 0 (Herbicidal rate of 5% or less (almost no effect)) | 0 (Herbicidal rate of 5% or less (almost no effect)) | 0 (Herbicidal rate of 5% or less (almost no effect)) | 0 (Herbicidal rate of 5% or less (almost no effect)) | 0 (Herbicidal rate of 5% or less (almost no effect)) | 0 (Herbicidal rate of 5% or less (almost no effect)) | 0 (Herbicidal rate of 5% or less (almost no effect)) | 0 (Herbicidal rate of 5% or less (almost no effect)) | 1 (Herbicidal rate of 5% or more and less than 20%) | 0 (Herbicidal rate of 5% or less (almost no effect)) | 0 (Herbicidal rate of 5% or less (almost no effect)) | 0 (Herbicidal rate of 5% or less (almost no effect)) | herbicidal effect on L: windgrass (windgrass [2]): 0 (Herbicidal rate of 5% or less (almost no effect)); herbicidal effect on J: blackgrass (blackgrass [9]): 0 (Herbicidal rate of 5% or less (almost no effect)); herbicidal effect on P: chickweed (chickweed [10]): 2 (Herbicidal rate of 20% or more and less than 40%); herbicidal effect on R: persian speedwell (persian speedwell [11]): 5 (Herbicidal rate of 90% or more (almost completely withered)); herbicidal effect on M: velvetleaf (velvetleaf [15]): 1 (Herbicidal rate of 5% or more and less than 20%); herbicidal effect on O: lambsquarters (lambsquarters [17]): 0 (Herbicidal rate of 5% or less (almost no effect)); herbicidal effect on F: southern crabgrass (southern crabgrass [18]): 0 (Herbicidal rate of 5% or less (almost no effect)); herbicidal effect on H: barnyard grass (barnyard grass [19]): 0 (Herbicidal rate of 5% or less (almost no effect)); herbicidal effect on G: green foxtail (green foxtail [20]): 0 (Herbicidal rate of 5% or less (almost no effect)); herbicidal effect on K: Italian ryegrass (Italian ryegrass [21]): 0 (Herbicidal rate of 5% or less (almost no effect)); herbicidal effect on Q: false cleavers (false cleavers [22]): 0 (Herbicidal rate of 5% or less (almost no effect)); herbicidal effect on N: redroot pigweed (redroot pigweed [25]): 2 (Herbicidal rate of 20% or more and less than 40%); herbicidal effect on I: wild oat (wild oat [26]): 0 (Herbicidal rate of 5% or less (almost no effect))
COc1ccc(F)cc1-c1sc2ccc(C)cc2c1-c1c(O)c(C)nn(C)c1=O [2-150] | 2 (Herbicidal rate of 20% or more and less than 40%) | 4 (Herbicidal rate of 70% or more and less than 90%) | 0 (Herbicidal rate of 5% or less (almost no effect)) | 0 (Herbicidal rate of 5% or less (almost no effect)) | 0 (Herbicidal rate of 5% or less (almost no effect)) | 0 (Herbicidal rate of 5% or less (almost no effect)) | 3 (Herbicidal rate of 40% or more and less than 70%) | 1 (Herbicidal rate of 5% or more and less than 20%) | 4 (Herbicidal rate of 70% or more and less than 90%) | 0 (Herbicidal rate of 5% or less (almost no effect)) | 0 (Herbicidal rate of 5% or less (almost no effect)) | 5 (Herbicidal rate of 90% or more (almost completely withered)) | 2 (Herbicidal rate of 20% or more and less than 40%) | 0 (Herbicidal rate of 5% or less (almost no effect)) | 0 (Herbicidal rate of 5% or less (almost no effect)) | 5 (Herbicidal rate of 90% or more (almost completely withered)) | herbicidal effect on L: windgrass (criteria 0-5) (windgrass [2]): 3 (Herbicidal rate of 40% or more and less than 70%); herbicidal effect on J: blackgrass (criteria 0-5) (blackgrass [9]): 4 (Herbicidal rate of 70% or more and less than 90%); herbicidal effect on P: chickweed (criteria 0-5) (chickweed [10]): 5 (Herbicidal rate of 90% or more (almost completely withered)); herbicidal effect on R: persian speedwell (criteria 0-5) (persian speedwell [11]): 5 (Herbicidal rate of 90% or more (almost completely withered)); herbicidal effect on M: velvetleaf (criteria 0-5) (velvetleaf [15]): 4 (Herbicidal rate of 70% or more and less than 90%); herbicidal effect on O: lambsquarters (criteria 0-5) (lambsquarters [17]): 3 (Herbicidal rate of 40% or more and less than 70%); herbicidal effect on F: southern crabgrass (criteria 0-5) (southern crabgrass [18]): 0 (Herbicidal rate of 5% or less (almost no effect)); herbicidal effect on H: barnyard grass (criteria 0-5) (barnyard grass [19]): 0 (Herbicidal rate of 5% or less (almost no effect)); herbicidal effect on G: green foxtail (criteria 0-5) (green foxtail [20]): 0 (Herbicidal rate of 5% or less (almost no effect)); herbicidal effect on K: Italian ryegrass (criteria 0-5) (Italian ryegrass [21]): 3 (Herbicidal rate of 40% or more and less than 70%); herbicidal effect on Q: false cleavers (criteria 0-5) (false cleavers [22]): 4 (Herbicidal rate of 70% or more and less than 90%); herbicidal effect on N: redroot pigweed (criteria 0-5) (redroot pigweed [25]): 5 (Herbicidal rate of 90% or more (almost completely withered)); herbicidal effect on I: wild oat (criteria 0-5) (wild oat [26]): 1 (Herbicidal rate of 5% or more and less than 20%)
